“And” between values parts separate entries of the source, which are not always exact repeats. Equal entries are not always repeated.
Test system: A498 complex spheroids with HUVEC/MSC, growth
Assay: Anticancer human tumor A498 cell line growth inhibition [AhR];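 note: seven day exposure starting three days after spheroid seeding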;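 for viability, T/C: luminescence signal used as a surrogate for viable cells; luminescence viability scaled so 100% equals DMSO vehicle wells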
Details: for viability, T/C: stronger effect = lower value
Method in brief: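 Agents were dosed in half-log steps down from roughly clinical Cmax, or from 10 microM where Cmax was unknown, alone and with AhR antagonists. Read-out: percent test/control growth of tumor spheroids containing HUVEC and MSC stromal cells.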

[1] = curve of first compound, second compound 0.1 µM
[2] = curve of first compound, second compound 0.316 µM
[3] = curve of first compound, second compound 1 µM
[4] = curve of first compound, second compound 3.16 µM
[5] = curve of first compound, second compound 10 µM
[6] = second compound 0.1 µM, first compound 0.0316 µM
[7] = second compound 0.1 µM, first compound 0.1 µM
[8] = second compound 0.1 µM, first compound 0.316 µM
[9] = second compound 0.1 µM, first compound 1 µM
[10] = second compound 0.316 µM, first compound 0.0316 µM
[11] = second compound 0.316 µM, first compound 0.1 µM
[12] = second compound 0.316 µM, first compound 0.316 µM
[13] = second compound 0.316 µM, first compound 1 µM
[14] = second compound 1 µM, first compound 0.0316 µM
[15] = second compound 1 µM, first compound 0.1 µM
[16] = second compound 1 µM, first compound 0.316 µM
[17] = second compound 1 µM, first compound 1 µM
[18] = second compound 3.16 µM, first compound 0.0316 µM
[19] = second compound 3.16 µM, first compound 0.1 µM
[20] = second compound 3.16 µM, first compound 0.316 µM
[21] = second compound 3.16 µM, first compound 1 µM
[22] = second compound 10 µM, first compound 0.0316 µM
[23] = second compound 10 µM, first compound 0.1 µM
[24] = second compound 10 µM, first compound 0.316 µM
[25] = second compound 10 µM, first compound 1 µM
[26] = second compound 0.1 µM, first compound 3.16 µM
[27] = second compound 0.1 µM, first compound 10 µM
[28] = second compound 0.316 µM, first compound 3.16 µM
[29] = second compound 0.316 µM, first compound 10 µM
[30] = second compound 1 µM, first compound 3.16 µM
[31] = second compound 1 µM, first compound 10 µM
[32] = second compound 3.16 µM, first compound 3.16 µM
[33] = second compound 3.16 µM, first compound 10 µM
[34] = second compound 10 µM, first compound 3.16 µM
[35] = second compound 10 µM, first compound 10 µM

CC1COCCN1c1cc(-c2ccnn2C)c2ccnc(-c3ccn[nH]3)c2n1 (configuration not stated)
viability, T/C (compound 0.00316 µM): 108% and 93.8% and 98.7% | viability, T/C (compound 0.01 µM): 111% and 87.4% and 102% | viability, T/C (compound 0.0316 µM): 95.7% and 68.2% and 82.7% | viability, T/C (compound 0.1 µM): 64.3% and 61.4% and 47.2% | viability, T/C (compound 0.316 µM): 32.3% and 25.7% and 21% | viability, T/C (compound 1 µM): 22.3% and 15.8% and 13.9% | IC50 (curve of compound): 167 nM and 121 nM and 90.9 nM

Nc1ncn(C2CC(O)C(CO)S2)c(=O)n1 (configuration not stated) + Cc1ccccc1N=Nc1ccc(NC(=O)c2ccnn2C)c(C)c1
IC50 [1]: > 300 nM | IC50 [2]: > 300 nM | IC50 [3]: > 300 nM | IC50 [4]: > 300 nM | IC50 [5]: > 300 nM | viability, T/C (second compound 0.1 µM, first compound 0.000949 µM): 93.5% | viability, T/C (second compound 0.1 µM, first compound 0.003 µM): 97.4% | viability, T/C (second compound 0.1 µM, first compound 0.00949 µM): 101% | viability, T/C (second compound 0.1 µM, first compound 0.03 µM): 89.8% | viability, T/C (second compound 0.1 µM, first compound 0.0949 µM): 89.9% | viability, T/C (second compound 0.1 µM, first compound 0.3 µM): 76.8% | viability, T/C (second compound 0.316 µM, first compound 0.000949 µM): 98.2% | viability, T/C (second compound 0.316 µM, first compound 0.003 µM): 101% | viability, T/C (second compound 0.316 µM, first compound 0.00949 µM): 93.3% | viability, T/C (second compound 0.316 µM, first compound 0.03 µM): 91.6% | viability, T/C (second compound 0.316 µM, first compound 0.0949 µM): 88.5% | viability, T/C (second compound 0.316 µM, first compound 0.3 µM): 78.1% | viability, T/C (second compound 1 µM, first compound 0.000949 µM): 92% | viability, T/C (second compound 1 µM, first compound 0.003 µM): 93.1% | viability, T/C (second compound 1 µM, first compound 0.00949 µM): 91.7% | viability, T/C (second compound 1 µM, first compound 0.03 µM): 89.2% | viability, T/C (second compound 1 µM, first compound 0.0949 µM): 79.6% | viability, T/C (second compound 1 µM, first compound 0.3 µM): 80.9% | viability, T/C (second compound 3.16 µM, first compound 0.000949 µM): 89.8% | viability, T/C (second compound 3.16 µM, first compound 0.003 µM): 94.2% | viability, T/C (second compound 3.16 µM, first compound 0.00949 µM): 97.4% | viability, T/C (second compound 3.16 µM, first compound 0.03 µM): 79.3% | viability, T/C (second compound 3.16 µM, first compound 0.0949 µM): 77.5% | viability, T/C (second compound 3.16 µM, first compound 0.3 µM): 71.3% | viability, T/C (second compound 10 µM, first compound 0.000949 µM): 88.2% | viability, T/C (second compound 10 µM, first compound 0.003 µM): 89% | viability, T/C (second compound 10 µM, first compound 0.00949 µM): 87.8% | viability, T/C (second compound 10 µM, first compound 0.03 µM): 89.1% | viability, T/C (second compound 10 µM, first compound 0.0949 µM): 80.8% | viability, T/C (second compound 10 µM, first compound 0.3 µM): 75.7%

CC1COCCN1c1cc(-c2ccnn2C)c2ccnc(-c3ccn[nH]3)c2n1 (configuration not stated) + CC(CO)NC(=O)c1cc(-c2ccc(Cl)cc2)nn(-c2cnn(C)c2)c1=O
IC50 [1]: 77.7 nM | IC50 [2]: 78.8 nM | IC50 [3]: 72.7 nM | IC50 [4]: 62 nM | IC50 [5]: 41.7 nM | viability, T/C (second compound 0.1 µM, first compound 0.00316 µM): 96.4% | viability, T/C (second compound 0.1 µM, first compound 0.01 µM): 103% | viability, T/C [6]: 82.3% | viability, T/C [7]: 40.5% | viability, T/C [8]: 20.1% | viability, T/C [9]: 13% | viability, T/C (second compound 0.316 µM, first compound 0.00316 µM): 90% | viability, T/C (second compound 0.316 µM, first compound 0.01 µM): 104% | viability, T/C [10]: 76% | viability, T/C [11]: 44.1% | viability, T/C [12]: 17.1% | viability, T/C [13]: 14.3% | viability, T/C (second compound 1 µM, first compound 0.00316 µM): 93.6% | viability, T/C (second compound 1 µM, first compound 0.01 µM): 92.6% | viability, T/C [14]: 78.6% | viability, T/C [15]: 39.1% | viability, T/C [16]: 18.4% | viability, T/C [17]: 15.7% | viability, T/C (second compound 3.16 µM, first compound 0.00316 µM): 88.6% | viability, T/C (second compound 3.16 µM, first compound 0.01 µM): 84.9% | viability, T/C [18]: 70.7% | viability, T/C [19]: 34.9% | viability, T/C [20]: 21.4% | viability, T/C [21]: 15.4% | viability, T/C (second compound 10 µM, first compound 0.00316 µM): 65.7% | viability, T/C (second compound 10 µM, first compound 0.01 µM): 68.5% | viability, T/C [22]: 55.1% | viability, T/C [23]: 31.6% | viability, T/C [24]: 20.2% | viability, T/C [25]: 14%

CC1COCCN1c1cc(C2(S(C)(=N)=O)CC2)nc(-c2ccnc3[nH]ccc23)n1 (configuration not stated) + Cc1cncc(-c2nc(NCCc3c[nH]c4ccccc34)c3ncn(C(C)C)c3n2)c1
IC50 [1]: 3550 nM | IC50 [2]: 2690 nM | IC50 [3]: 2260 nM | IC50 [4]: < 31.6 nM | IC50 [5]: < 31.6 nM | viability, T/C [6]: 97.8% | viability, T/C [7]: 98.7% | viability, T/C [8]: 90.4% | viability, T/C [9]: 81.9% | viability, T/C [26]: 52.5% | viability, T/C [27]: 23.1% | viability, T/C [10]: 94.9% | viability, T/C [11]: 102% | viability, T/C [12]: 96.3% | viability, T/C [13]: 78.5% | viability, T/C [28]: 45.7% | viability, T/C [29]: 27.5% | viability, T/C [14]: 86.8% | viability, T/C [15]: 92% | viability, T/C [16]: 87.5% | viability, T/C [17]: 68.2% | viability, T/C [30]: 42.9% | viability, T/C [31]: 23.4% | viability, T/C [18]: 37.1% | viability, T/C [19]: 37.2% | viability, T/C [20]: 39.5% | viability, T/C [21]: 35.5% | viability, T/C [32]: 33.9% | viability, T/C [33]: 21.9% | viability, T/C [22]: 4.97% | viability, T/C [23]: 6.89% | viability, T/C [24]: 5.25% | viability, T/C [25]: 5.47% | viability, T/C [34]: 5.09% | viability, T/C [35]: 9.27%

COc1cccc2c1C(=O)c1c(O)c3c(c(O)c1C2=O)CC(O)(C(=O)CO)CC3OC1CC(N)C(O)C(C)O1 (configuration not stated) + CC(CO)NC(=O)c1cc(-c2ccc(Cl)cc2)nn(-c2cnn(C)c2)c1=O
IC50 [1]: 129 nM | IC50 [2]: 148 nM | IC50 [3]: 231 nM | IC50 [4]: 119 nM | IC50 [5]: < 31.6 nM | viability, T/C [6]: 55.1% | viability, T/C [7]: 55.6% | viability, T/C [8]: 37.6% | viability, T/C [9]: 16.1% | viability, T/C [26]: 2.16% | viability, T/C [27]: 0.7% | viability, T/C [10]: 55% | viability, T/C [11]: 53.3% | viability, T/C [12]: 43.3% | viability, T/C [13]: 16.4% | viability, T/C [28]: 2.65% | viability, T/C [29]: 0.83% | viability, T/C [14]: 56.1% | viability, T/C [15]: 56.2% | viability, T/C [16]: 47.7% | viability, T/C [17]: 20.4% | viability, T/C [30]: 4.74% | viability, T/C [31]: 2.49% | viability, T/C [18]: 52.6% | viability, T/C [19]: 49.8% | viability, T/C [20]: 44.1% | viability, T/C [21]: 11.3% | viability, T/C [32]: 3.01% | viability, T/C [33]: 1.69% | viability, T/C [22]: 46.6% | viability, T/C [23]: 38.5% | viability, T/C [24]: 31.9% | viability, T/C [25]: 1.3% | viability, T/C [34]: 2.75% | viability, T/C [35]: 0.83%

Nc1ccccc1NC(=O)c1ccc(CNC(=O)OCc2cccnc2)cc1 + Cc1cncc(-c2nc(NCCc3c[nH]c4ccccc34)c3ncn(C(C)C)c3n2)c1
IC50 [1]: 1220 nM | IC50 [2]: 1260 nM | IC50 [3]: 1150 nM | IC50 [4]: 221 nM | IC50 [5]: < 31.6 nM | viability, T/C [6]: 82.6% | viability, T/C [7]: 79.7% | viability, T/C [8]: 70.5% | viability, T/C [9]: 57.8% | viability, T/C [26]: 23% | viability, T/C [27]: 2.08% | viability, T/C [10]: 83.6% | viability, T/C [11]: 84% | viability, T/C [12]: 84% | viability, T/C [13]: 53.7% | viability, T/C [28]: 24% | viability, T/C [29]: 1.77% | viability, T/C [14]: 83.8% | viability, T/C [15]: 78.5% | viability, T/C [16]: 72.8% | viability, T/C [17]: 56.1% | viability, T/C [30]: 18.1% | viability, T/C [31]: 2.18% | viability, T/C [18]: 50.4% | viability, T/C [19]: 49.9% | viability, T/C [20]: 51.5% | viability, T/C [21]: 41.2% | viability, T/C [32]: 16.9% | viability, T/C [33]: 1.1% | viability, T/C [22]: 3.86% | viability, T/C [23]: 3.69% | viability, T/C [24]: 2.11% | viability, T/C [25]: 1.29% | viability, T/C [34]: 0.5% | viability, T/C [35]: 0.86%
